Residues, ends and D or L forms follow the SMILES beside them.

Data set [1] concerns normal human keratinocytes. Put plainly: Ultrastructure of mitochondria by electron microscopy. The following applies: 1% solution of a 50-ppm mother-solution for 72 hours. The class given is cell-based. As to the method:
The aim of this study was to determine the action of the SEQ ID No. 2 peptide on mitochondria, by observing the ultrastructures with the electron microscope.
Protocol: Normal human keratinocytes were treated with a 1% solution of a 50-ppm mother-solution of SEQ ID No. 2 peptide for 72 hours. Negative controls were achieved under the same conditions, but in the absence of the said peptide.
The cells were then fixed using Karnovsky's fixative (20 ml of 16% paraformaldehyde/8 ml of 50% glutaraldehyde/25 ml of 0.2 M sodium phosphate buffer/25 ml of water) for 1 hr at ambient temperature, and then left overnight at 4° C. The culture media were scraped into the Karnovsky's fixative and then the cells were centrifuged for 5 minutes at 5000 rpm. The supernatant was isolated and the pellet resuspended in 1 ml of 0.1 M cacodylate. The samples were then kept at 4° C. until their processing for electron microscopy observation.

For the next data set, the system named is aconitase. The data set is described as follows: Total (cytoplasmic and mitochondrial) enzymatic activity of aconitase in fibroblasts, Bioxytech Aconitase-340 kit. Type of data set: cell-based, human. As to the method: (§1) The aim of this study was to determine the effect of the SEQ ID No. 2 peptide on the enzymatic activity of aconitase. For this, the total enzymatic activity (cytoplasmic and mitochondrial) and the mitochondrial enzymatic activity of aconitase were measured.
Protocol: Normal human fibroblasts were treated with a 1% solution of a 50-ppm SEQ ID No. 2 peptide representative of the peptide family according to the invention, for 48 hr, and were then subjected to UVB radiation of 100 mJ/cm^2. After irradiation, the cells were treated under the same conditions for another 24 hr. Negative controls were achieved under the same conditions, but in the absence of the SEQ ID No. 2 peptide.
To evaluate the enzymatic activity of aconitase, the fibroblasts were then collected and centrifuged in PBS buffer. […]
(§2) The measurement of the enzymatic activity of aconitase was made using the Oxis Bioxytech Aconitase-340 assay kit (Oxis International), according to the following principle: aconitase causes isomerization of the citrate to isocitrate. […] It is the formation of NADPH that is quantified spectrophotometrically at 340 nm. Under the experimental conditions chosen, the rate of NADPH formation is proportional to the quantity of aconitase. The analysis of the kinetics of NADPH appearance enables the concentration of aconitase in the sample to be calculated (in mU/ml)

The next data set deals with T1, mitochondrial aconitase (Homo sapiens, UniProt Q99798).
T1 construct: endogenous in cells; host or cells: normal human fibroblasts, mitochondrial fraction (10,000 g pellet)
T1 sequence (Q99798 28-780): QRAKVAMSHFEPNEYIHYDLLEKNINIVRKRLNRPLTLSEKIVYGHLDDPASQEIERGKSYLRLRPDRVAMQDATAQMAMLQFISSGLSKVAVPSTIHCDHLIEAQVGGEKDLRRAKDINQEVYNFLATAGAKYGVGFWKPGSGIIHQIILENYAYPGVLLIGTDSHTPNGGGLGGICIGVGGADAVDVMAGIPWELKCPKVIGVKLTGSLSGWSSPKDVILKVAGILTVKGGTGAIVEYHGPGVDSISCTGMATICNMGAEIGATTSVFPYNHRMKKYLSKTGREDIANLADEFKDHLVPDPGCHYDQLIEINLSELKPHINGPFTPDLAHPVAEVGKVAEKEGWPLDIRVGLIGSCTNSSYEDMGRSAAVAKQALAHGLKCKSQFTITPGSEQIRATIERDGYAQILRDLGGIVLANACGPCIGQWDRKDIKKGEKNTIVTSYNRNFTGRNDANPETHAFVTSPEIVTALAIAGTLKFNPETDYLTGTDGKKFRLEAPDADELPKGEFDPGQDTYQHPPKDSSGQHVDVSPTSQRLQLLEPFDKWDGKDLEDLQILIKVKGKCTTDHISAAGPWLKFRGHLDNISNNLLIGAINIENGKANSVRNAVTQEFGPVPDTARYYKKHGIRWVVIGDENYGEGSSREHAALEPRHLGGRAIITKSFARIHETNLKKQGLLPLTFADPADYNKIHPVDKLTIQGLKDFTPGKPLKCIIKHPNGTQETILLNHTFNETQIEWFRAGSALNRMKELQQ
Put plainly: Enzymatic activity of mitochondrial aconitase in the mitochondrial fraction of fibroblasts, Bioxytech Aconitase-340 kit. The class given is cell-based. The following applies: concentration printed as 0.05 ppm. As to the method:
as §1
[…] After irradiation, the cells were treated under the same conditions for another 24 hr. Negative controls were achieved under the same conditions, but in the absence of the SEQ ID No. 2 peptide.
To evaluate the enzymatic activity of aconitase, the fibroblasts were then collected and centrifuged in PBS buffer. A portion of the cells was then processed to measure total enzymatic activity; another portion was used to isolate the mitochondrial fraction according to the following protocol. […]
as §2

For data set [2], the system named is primary human fibroblasts. Put plainly: Comet test (single-cell gel electrophoresis), DNA damage after UVB irradiation. Type of data set: cell-based. The following applies: UVB 100 mJ/cm^2, 0.5 ppm peptide. As to the method:
A study of the cytoprotective effect of SEQ ID No. 2 peptide was made by evaluating the damage caused at the DNA level. This study was done using the comet (or single-cell gel electrophoresis) test, a quick and sensitive micro-electrophoretic technique that enables breaks in the DNA to be visualized and quantified in individual cells.
Protocol: Primary human fibroblasts were seeded in […] dishes. When the cells reached 70% coalescence, they were treated with SEQ ID No. 2 peptide diluted to 1% (starting from a 50-ppm solution) for 24 hours. The cells were then subjected to UVB irradiation at 100 mJ/cm^2, then cultivated in the presence of the peptide for another 24 hours. The dishes not treated with the peptide served as controls. A cellular suspension of 100,000 cells/ml was then achieved, 500 μl were removed, inserted into an agarose solution, and run between slide and cover glass. The cells were lysed in the cold. The DNA was then denatured with an alkaline buffer and subjected to a brief electrophoresis (250 mA for 30 minutes), and stained with propidium iodate. The slides were then observed under a fluorescence microscope. An altered cell sees its DNA stretch toward the anode in proportion to the number of breaks present in the DNA, and it forms a “comet”. The highly degraded DNA is found in the “tail” of the comet. An intact cell remains round, and its DNA is then packed into the area of the comet “head”.
The evaluation of DNA breaks was done using image-analyzer software that enables the percentage of DNA degradation to be determined, by means of a quantitative evaluation of the “tail moment”, a parameter defined as the product of the length of the comet by the percentage of DNA in its distal portion.

The next data set deals with human dermal fibroblasts. Type of data set: cell-based. The following applies: 48 h, 0.5 ppm. As to the method: The aim of this study was to determine the protective effect of the SEQ ID No. 2 peptide with respect to dermal fibroblasts subjected to an oxidative stress caused by oxygenated water (H2O2) in a concentration of 4 mM or 5 mM. For this, cellular viability tests were performed using the MTT technique. Protocol: Human dermal fibroblasts were treated with a 1% solution of a 50-ppm SEQ ID No. 2 peptide for 24 hours, subjected to an oxidative stress caused by 4 mM or 5 mM of H2O2 for 30 minutes, and then cultivated for another 24 hours in the presence of the same concentration of SEQ ID No. 2 peptide. Controls treated with neither the peptide nor H2O2 and controls treated with the peptide alone were achieved under the same conditions. At the end of the experiment, the cells were incubated in a solution containing 0.1 mg/ml of MTT (3-[4,5-dimethylthiazole-2-yl]-2,5-diphenyltetrazolium bromide) according to the protocol described in example 3

A further data set has as its system dermal fibroblasts. The data set is described as follows: Intracellular ATP synthesis, ATP Bioluminescence Assay Kit HS II. The class given is cell-based. The following applies: 1% solution of a 50-ppm peptide solution. As to the method:
The aim of this study was to determine the effect of the SEQ ID No. 1 peptide on mitochondrial activity. It is the ATP produced by the mitochondria that serves as a biochemical marker for this activity.
Protocol: This study was conducted using an ATP Bioluminescence Assay Kit HS II (Roche Applied Science). Dermal fibroblasts were treated with a 1% solution of a 50-ppm solution containing the SEQ ID No. 1 peptide, representative of the peptide family according to the invention, for a period of 1 to 3 hours. At the end of the incubation time, the tubes were emptied of their medium and rinsed with 2 ml of cold PBS before adding 250 μl of a lysing buffer provided in the kit. The cells of each tube were then scraped up and collected in 14-ml tubes. Each tube was rinsed with 2×500 μl of cold PBS, and the whole was collected again in the respective tubes. […] The ATP measurement was performed on these samples: 50 μl of this dilution was placed in a Luma cuvette and 50 μl of […] was added. After 10 seconds, the luminescence reading was begun. The values were standardized relative to the quantity of proteins for each sample. The measurements were made using the Biocounter M2010A Luma®/3M equipment.

With `CC[C@H](C)[C@H](NC(=O)[C@H](CS)NC(=O)[C@@H](N)CO)C(=O)N[C@@H](CC(N)=O)C(=O)N[C@H](C(N)=O)[C@@H](C)O` [SEQ ID No. 2, Ser-Cys-Ile-Asn-Thr-NH2] (H-SCINT-NH2; N-terminus assumed), the “ultrastructural characteristics of the organelles” value in data set [1] is listed as “ultrastructural characteristics suggesting an increase in metabolic activity”. Further, the “increase in total enzymatic activity of aconitase compared with untreated control cells” value in the data set with aconitase (not irradiated, 1% solution of a 50-ppm peptide, n=5) stood at 56.3%. Moreover, the “enzymatic activity of mitochondrial aconitase” value on mitochondrial aconitase is on record as “strongly stimulates”. In addition, the “reduction of "tail moment" (DNA damage)” value in data set [2] (versus UVB control) was 25%. The “Measurement of "tail moment"” value in data set [2] (UVB control 106,563) is 80,221. For the same compound, in data set [2] (UVB control = 100), the “% of "tail moment" relative to UV control” value stood at 75%. The “% viability” value with human dermal fibroblasts is 121.13%.

Regarding “Ser-Cys-Ile-Asn-Thr (SCINT) [SEQ ID No. 1]”, the “amount of intracellular ATP compared to the untreated cells” value in the data set with dermal fibroblasts (after 3 hours) is “clear increase”. Also, the “increase in the amount of intracellular ATP compared to the untreated cells” value with dermal fibroblasts (after one hour) was 43%.

On to “Ser-Cys-Ile-Asn-Ser (SCINS) [SEQ ID No. 5]”, for which the “total enzymatic activity of aconitase after UVB irradiation” value with aconitase (UVB 100 mJ/cm^2, peptide treatment before (48 hr) and after (24 hr) irradiation) was “enabled the observed reduction to be limited”.

(Values after patent publication US8440615B2, “Pharmaceutical and/or cosmetic composition containing active-principle activators of aconitase” (Societe d'Extraction des Principes Actifs (Vincience), priority 2007, dated 2013).)
